Some results are limits rather than exact numbers.

Assay [1] concerns susceptible E. coli HB101 K-12 (no β-lactamase). Description: Broth microdilution (preliminary, Table 1), susceptible K-12. It counts as cell-based, Escherichia coli. The conditions noted are these: for IC50: Escherichia coli, Susceptable K-12 E. coli, LB, OD600, preliminary results. On the procedure: (§1) In order to determine the antibiotic activity of DB4-51, a debilitated strain of Escherichia coli (HB101 K-12) was transformed with the pGLO plasmid from Bio-Rad in order to express β-lactamase. This transformation was confirmed by growing on a selective medium containing 100 μg/ml ampicillin in Lennox LB with 1.5% agar. A broth microdilution assay was employed to determine the relative activity of DB4-51 against susceptible (HB 101 K-12, no β-lactamase) and resistant (HB 101 K-12 transformed to express β-lactamase) E. coli. Using Lennox LB as the medium. serial dilutions of the test compounds were performed in a 96-well plate and then inoculated with E. coli before incubating for 16-20 hours at 35° C. The bacterial growth was monitored by recording each well's absorbance at 600 nm (OD600.) The OD600 values of E. coli suspensions incubated with various compounds were compared in order to assess their activities.
FIG. 7: OD600 of susceptible and resistant K-12 E. coli cultures against DB4-51 and known antibiotics as a function of concentration. Ampicillin has a penicillin core and cephalexin has a cephalosporin core. Cultures were grown in LB broth at 37° C. while shaking at 200 rpm for 18 hours and then diluted to an OD600 of 0.005 before adding the compounds. Plates were grown at 35° C. while shaking at 200 rpm and the OD600 was recorded after 18 hours.
(§2) Table 1: Calculated IC50 values for DB4-51, cephalexin, ampicillin, and pyrithione. These values were derived by fitting the data to a log dose-response curve and reporting the concentration corresponding to half the maximum OD600 value for each compound.
Background: Broth dilution looks for growth in wells or tubes with falling amounts of substance.

Assay [2] relates to resistant E. coli HB101 K-12 transformed to express β-lactamase. In words: microbe, parasite or virus in culture. It counts as cell-based, Escherichia coli. Conditions: for IC50: Escherichia coli. On the procedure: as §1, with “Using Lennox LB as the medium. serial dilutions of the test compounds were performed in a 96-well plate and then inoculated with E. coli before incubating for 16-20 hours at 35° C.” left out
FIG. 7: OD600 of susceptible and resistant K-12 E. coli cultures against DB4-51 and known antibiotics as a function of concentration. Ampicillin has a penicillin core and cephalexin has a cephalosporin core. Cultures were grown in LB broth at 37° C. while shaking at 200 rpm for 18 hours and then diluted to an OD600 of 0.005 before adding the compounds. […]
as §2

Assay [3] deals with clinical isolates of Klebsiella pneumonia (Klebs). In words: Broth microdilution in Klebs clinical isolates. It counts as cell-based. The conditions noted are these: Klebsiella pneumoniae, LB broth. From the text: Bacterial culture reagents including LB broth (Lennox), agar-agar, ampicillin, and ceftriaxone were purchased from Sigma Aldrich Corp. The Escherichia coli (E. coli) K12 strain HB101 and pGLO E. coli transformation kit purchased from Bio-Rad Laboratories Inc. HB101 was transformed with the bla gene via the pGLO plasmid. The bla gene encodes for a TEM-1 β-lactamase that imparts penicillin resistance to the mutant E. coli K-12 strain (+Bla). Strains E. coli UTI89, [27] pCOM-GFP-transformed E. coli UTI89 (pCOM-GFP), [28] and Methicillin-Resistant Staphylococcus aureus (MRSA) clone USA300 [29] have been previously described. The Extended-Spectrum β-Lactamase (ESBL) E. coli, Klebsiella pneumonia (Klebs), and Pseudomonas aeruginosa (Pseudo) strains were clinical isolates acquired deidentified from Duke Hospital and tested for antibiotic susceptibility in the Clinical Microbiology Laboratory using standard clinical susceptibility methods.
Cultures were incubated on LB (Lennox, Sigma) agar at 37° C. in ambient atmospheric composition. Before beginning an experiment, a single bacterial colony grown on LB agar was resuspended in 2 mL LB broth and incubated overnight to form a turbid cell suspension. The overnight culture was diluted 1:100 in LB and used immediately as the working culture. To assess the antibacterial activity of compounds, the working bacterial culture was aliquoted in a clear, flat-bottomed, 96-well polystyrene plate (Costar) and the compound of interest was added in 2-fold serial dilution from 500 to 1 μM. Plates were covered with a breathable sealing film (Aeroseal, Genesee Scientific) and incubated at 37° C. in ambient atmospheric composition with shaking at 200 rpm. Optical density at 600 nm was recorded after 4 h and 20 h for each well using a standard OD600 protocol with LB serving as the blank. The resulting dose-response curves were fit to a nonlinear regression in GraphPad Prism Version 6 to calculate the IC50 of DB4-51 in each strain.

For `CC1(C)S[C@@H]2[C@H](NC(=O)[C@H](N)c3ccccc3)C(=O)N2[C@H]1C(=O)O` [Ampicillin], the concentration for half-maximal inhibition (IC50) (commonly the concentration that gives 50% inhibition) in assay [1] was below 18 µM; in assay [2] it was above 560 µM; in assay [3] (Klebs Isolate 1), 142 µM; in assay [3] (Klebs Isolate 2), above 500 µM; in assay [3] (Klebs Isolate 3), 55 µM; in assay [3] (Klebs Isolate 4) it was above 500 µM. For the same compound, the IC50 in assay [3] (Klebs Isolate 5) is 175 µM; in assay [3] (Klebs Isolate 6) it was 118 µM; in assay [3] (Klebs Isolate 7) it was above 500 µM; in assay [3] (Klebs Isolate 8), above 500 µM; in assay [3] (Klebs Isolate 9) it was above 500 µM; in assay [3] (Klebs Isolate 10), above 500 µM. The half-maximal inhibitory concentration (IC50) in assay [3] (Klebs Isolate 11) was 251 µM; in assay [3] (Klebs Isolate 12), 112 µM; in assay [3] (Klebs Isolate 13), above 500 µM. Moreover, the “activity against susceptible strain (FIG. 7)” value in assay [1] (susceptible strain of E. coli) is “very active”.
As for `O=C(Cc1ccccc1)N[C@@H]1C(=O)N2C(C(=O)O)=C(CSc3cccc[n+]3[O-])CS[C@H]12` [DB4-51, 2-((((6R,7R)-2-carboxy-8-oxo-7-(2-phenylacetamido)-5-thia-1-azabicyclo[4.2.0]oct-2-en-3-yl)methyl)thio)pyridine 1-oxide], the concentration for half-maximal inhibition (IC50) in assay [1] was 80 µM; in assay [2] it was 39 µM; in assay [3] (Klebs Isolate 1), 25 µM; in assay [3] (Klebs Isolate 2), 45 µM; in assay [3] (Klebs Isolate 3), 163 µM; in assay [3] (Klebs Isolate 4), 133 µM. In addition, the IC50 in assay [3] (Klebs Isolate 5) amounted to 49 µM; in assay [3] (Klebs Isolate 6), 47 µM; in assay [3] (Klebs Isolate 7) it was 9 µM; in assay [3] (Klebs Isolate 8), 30 µM; in assay [3] (Klebs Isolate 9), 10 µM; in assay [3] (Klebs Isolate 10), 150 µM. Further, the values for the half-inhibitory concentration (IC50) in assay [3] (Klebs Isolate 11), in assay [3] (Klebs Isolate 12) and in assay [3] (Klebs Isolate 13) were 34 µM, 52 µM and above 500 µM, respectively. In addition, in assay [2] (resistant K-12, over 22 hours), the “decrease of IC50 over time” value is 50%.
Take `[O-][n+]1ccccc1S` [PT, 2-mercaptopyridine N-oxide]: the IC50 in assay [1] was below 18 µM; in assay [2], below 18 µM; in assay [3] (Klebs Isolate 1), 10 µM; in assay [3] (Klebs Isolate 2) it was 5 µM; in assay [3] (Klebs Isolate 3), 21 µM; in assay [3] (Klebs Isolate 4) it was 9 µM. For the same compound, the half-maximal inhibitory concentration (IC50) came to 11 µM in assay [3] (Klebs Isolate 5); 6 µM in assay [3] (Klebs Isolate 6); 10 µM in assay [3] (Klebs Isolate 7); 10 µM in assay [3] (Klebs Isolate 8); 9 µM in assay [3] (Klebs Isolate 9); 5 µM in assay [3] (Klebs Isolate 10). In addition, the IC50 in assay [3] (Klebs Isolate 11) amounted to 6.5 µM; in assay [3] (Klebs Isolate 12), 8 µM; in assay [3] (Klebs Isolate 13), 11 µM.

The record behind these values is patent US10533018B2, “Antimicrobial prochelators to target drug-resistant bacteria and methods of making and using the same” (Duke University, priority 2015, dated 2020).
